Laboratory results reported in patent US20110166192A1, “PROCESS FOR CHARGING A POLYMERIC PRODUCT WITH ATTRIBUTE IMPARTING AGENT(S)” (ADITYA BIRLA SCIENCE & TECHNOLOGY CO. LTD., priority 2008, published 2011).

Tested on: Staphylococcus Aureus bacteria strain ATCC 6538
Assay: Sustained/control release of anti-bacterial agent from the polymeric product at various temperatures, AATCC 147 zone of inhibition (FIG. 2)
Type: cell-based
Details: polymeric product containing reservoir (melting range of 35-65° C.) with triclosan, 24 hr contact time
Protocol: The activity of an anti-bacterial agent in the polymeric product was conducted by Qualitative AATCC 147 method. The test was conducted with Staphylococcus Aureus bacteria strain ATCC 6538. Observation of growth under the specimen accompanied with no zone of inhibition was considered as No (i.e. failed test with no anti-bacterial activity) and no growth under the specimen, with or without zone of inhibition was considered as Yes (passed test with anti-bacterial activity).
Also the polymeric product containing reservoir (melting range of 35-65° C.) was incorporated with triclosan as anti-bacterial ingredient. The product was washed and dried at ambient temperature of 20° C. after which the fabric was maintained at said temperature for 30 minutes and measured for efficacy. Anti-bacterial analysis was done based on AATCC 147 with 24 hr contact time and the zone of inhibition (in mm) was measured. The sustained/control release of an anti-bacterial agent in the polymeric product was studied at various temperatures. The results are displaced in FIG. 2 of accompanying drawings.

Structure (SMILES): Oc1cc(Cl)ccc1Oc1ccc(Cl)cc1Cl [triclosan, 5-chloro-2-(2,4-dichlorophenoxy)phenol]
- release profile of anti-bacterial agent (zone of inhibition): sustained/control release profile with temperature
